Legend:
Assay in all cases: CEREP protein kinase assay
Type in all cases: biochemical
[1] = molecular target: T1, MUSK (Homo sapiens, UniProt O15146)
T1 construct: purchased CEREP Panlabs (Eurofins)
T1 sequence (O15146 24-869): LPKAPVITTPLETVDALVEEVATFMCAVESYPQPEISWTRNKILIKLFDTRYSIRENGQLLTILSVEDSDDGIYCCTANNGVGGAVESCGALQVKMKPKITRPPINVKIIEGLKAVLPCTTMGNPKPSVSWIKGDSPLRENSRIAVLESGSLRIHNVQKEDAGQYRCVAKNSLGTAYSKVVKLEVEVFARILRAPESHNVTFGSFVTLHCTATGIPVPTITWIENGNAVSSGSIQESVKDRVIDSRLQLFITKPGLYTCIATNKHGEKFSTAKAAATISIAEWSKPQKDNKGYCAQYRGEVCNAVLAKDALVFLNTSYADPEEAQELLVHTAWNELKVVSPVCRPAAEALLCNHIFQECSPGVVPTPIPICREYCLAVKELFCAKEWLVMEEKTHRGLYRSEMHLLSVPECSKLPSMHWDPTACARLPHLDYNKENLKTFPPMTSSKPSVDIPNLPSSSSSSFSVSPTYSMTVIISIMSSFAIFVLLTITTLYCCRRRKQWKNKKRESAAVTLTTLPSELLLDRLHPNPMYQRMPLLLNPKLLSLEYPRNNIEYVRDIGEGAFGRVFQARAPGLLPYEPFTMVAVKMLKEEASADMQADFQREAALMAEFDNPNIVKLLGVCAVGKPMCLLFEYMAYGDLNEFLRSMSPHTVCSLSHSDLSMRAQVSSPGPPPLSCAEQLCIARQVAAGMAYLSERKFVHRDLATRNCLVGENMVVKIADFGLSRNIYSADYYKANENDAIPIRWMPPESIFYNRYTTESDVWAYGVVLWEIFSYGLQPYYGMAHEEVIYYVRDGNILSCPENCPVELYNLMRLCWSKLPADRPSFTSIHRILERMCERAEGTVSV

[2] = molecular target: T2, RON (Homo sapiens, UniProt Q04912)
T2 construct: purchased CEREP Panlabs (Eurofins)

[3] = molecular target: T3, MET (Homo sapiens, UniProt P08581)
T3 construct: purchased CEREP Panlabs (Eurofins)

[4] = molecular target: T4, DYRK2 (Homo sapiens, UniProt Q92630)
T4 construct: purchased CEREP Panlabs (Eurofins)
T4 sequence (Q92630 1-601): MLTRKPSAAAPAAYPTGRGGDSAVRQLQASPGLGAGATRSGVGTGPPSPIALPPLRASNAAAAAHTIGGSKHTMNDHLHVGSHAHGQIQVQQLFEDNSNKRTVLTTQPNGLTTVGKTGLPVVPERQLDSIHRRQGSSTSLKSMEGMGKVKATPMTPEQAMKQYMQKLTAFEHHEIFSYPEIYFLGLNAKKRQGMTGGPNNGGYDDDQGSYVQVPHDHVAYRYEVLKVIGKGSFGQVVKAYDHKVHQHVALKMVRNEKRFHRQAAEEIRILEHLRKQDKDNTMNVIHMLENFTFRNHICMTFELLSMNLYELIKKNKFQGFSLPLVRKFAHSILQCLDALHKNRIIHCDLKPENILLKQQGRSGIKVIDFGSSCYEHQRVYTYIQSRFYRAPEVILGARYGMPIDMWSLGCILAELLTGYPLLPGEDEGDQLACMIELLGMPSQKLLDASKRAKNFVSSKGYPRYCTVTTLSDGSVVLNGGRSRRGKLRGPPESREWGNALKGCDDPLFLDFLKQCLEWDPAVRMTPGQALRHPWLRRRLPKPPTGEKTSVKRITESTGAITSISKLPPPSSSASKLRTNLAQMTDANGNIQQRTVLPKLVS

[5] = molecular target: T5, LCK (Homo sapiens, UniProt P06239)
T5 construct: purchased CEREP Panlabs (Eurofins)

[6] = molecular target: T6, EPHA3 (Homo sapiens, UniProt P29320)
T6 construct: purchased CEREP Panlabs (Eurofins)
T6 sequence (P29320 21-983): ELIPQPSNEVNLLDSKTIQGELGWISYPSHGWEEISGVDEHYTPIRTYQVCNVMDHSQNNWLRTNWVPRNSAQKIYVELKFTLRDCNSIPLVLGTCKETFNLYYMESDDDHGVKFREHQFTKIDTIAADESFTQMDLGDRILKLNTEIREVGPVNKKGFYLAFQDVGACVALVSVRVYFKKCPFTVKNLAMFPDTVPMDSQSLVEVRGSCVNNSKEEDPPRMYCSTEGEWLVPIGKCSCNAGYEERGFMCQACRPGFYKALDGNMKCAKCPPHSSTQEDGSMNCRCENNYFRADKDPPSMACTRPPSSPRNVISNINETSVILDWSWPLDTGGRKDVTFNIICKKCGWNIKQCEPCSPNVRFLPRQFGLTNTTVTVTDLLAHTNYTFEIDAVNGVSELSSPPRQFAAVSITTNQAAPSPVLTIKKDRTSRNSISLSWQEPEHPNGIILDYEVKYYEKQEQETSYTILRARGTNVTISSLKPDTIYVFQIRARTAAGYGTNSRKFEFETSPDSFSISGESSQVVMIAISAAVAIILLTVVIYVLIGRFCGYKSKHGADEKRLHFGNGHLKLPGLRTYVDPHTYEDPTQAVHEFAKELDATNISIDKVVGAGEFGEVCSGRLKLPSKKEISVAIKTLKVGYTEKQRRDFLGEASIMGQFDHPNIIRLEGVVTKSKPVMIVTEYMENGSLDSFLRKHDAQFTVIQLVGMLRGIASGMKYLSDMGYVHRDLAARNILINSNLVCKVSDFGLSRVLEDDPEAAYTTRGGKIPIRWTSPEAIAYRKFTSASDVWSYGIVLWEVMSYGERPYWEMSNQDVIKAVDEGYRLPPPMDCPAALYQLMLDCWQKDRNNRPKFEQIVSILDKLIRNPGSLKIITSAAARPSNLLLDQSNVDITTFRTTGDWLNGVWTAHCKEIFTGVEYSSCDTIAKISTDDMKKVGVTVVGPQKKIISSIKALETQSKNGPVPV

[7] = molecular target: T7, FLT1 (Homo sapiens, UniProt P17948)
T7 construct: purchased CEREP Panlabs (Eurofins)

[8] = molecular target: T8, FGFR1 (Homo sapiens, UniProt P11362)
T8 construct: purchased CEREP Panlabs (Eurofins)

T5 sequence (P06239 whole entry): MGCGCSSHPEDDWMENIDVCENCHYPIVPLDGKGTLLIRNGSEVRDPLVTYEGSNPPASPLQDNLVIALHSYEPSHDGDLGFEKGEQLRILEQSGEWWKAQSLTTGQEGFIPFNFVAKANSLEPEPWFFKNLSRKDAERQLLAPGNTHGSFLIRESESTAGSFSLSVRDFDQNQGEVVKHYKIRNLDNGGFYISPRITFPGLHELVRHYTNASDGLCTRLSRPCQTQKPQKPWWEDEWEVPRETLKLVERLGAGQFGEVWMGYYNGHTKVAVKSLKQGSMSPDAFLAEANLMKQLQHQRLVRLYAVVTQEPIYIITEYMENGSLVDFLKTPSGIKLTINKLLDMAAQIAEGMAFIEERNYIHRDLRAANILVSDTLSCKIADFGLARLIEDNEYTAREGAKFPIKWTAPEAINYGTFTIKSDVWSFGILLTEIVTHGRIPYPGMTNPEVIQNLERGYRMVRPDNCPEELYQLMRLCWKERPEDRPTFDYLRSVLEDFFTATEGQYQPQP
T3 sequence (P08581 25-1390): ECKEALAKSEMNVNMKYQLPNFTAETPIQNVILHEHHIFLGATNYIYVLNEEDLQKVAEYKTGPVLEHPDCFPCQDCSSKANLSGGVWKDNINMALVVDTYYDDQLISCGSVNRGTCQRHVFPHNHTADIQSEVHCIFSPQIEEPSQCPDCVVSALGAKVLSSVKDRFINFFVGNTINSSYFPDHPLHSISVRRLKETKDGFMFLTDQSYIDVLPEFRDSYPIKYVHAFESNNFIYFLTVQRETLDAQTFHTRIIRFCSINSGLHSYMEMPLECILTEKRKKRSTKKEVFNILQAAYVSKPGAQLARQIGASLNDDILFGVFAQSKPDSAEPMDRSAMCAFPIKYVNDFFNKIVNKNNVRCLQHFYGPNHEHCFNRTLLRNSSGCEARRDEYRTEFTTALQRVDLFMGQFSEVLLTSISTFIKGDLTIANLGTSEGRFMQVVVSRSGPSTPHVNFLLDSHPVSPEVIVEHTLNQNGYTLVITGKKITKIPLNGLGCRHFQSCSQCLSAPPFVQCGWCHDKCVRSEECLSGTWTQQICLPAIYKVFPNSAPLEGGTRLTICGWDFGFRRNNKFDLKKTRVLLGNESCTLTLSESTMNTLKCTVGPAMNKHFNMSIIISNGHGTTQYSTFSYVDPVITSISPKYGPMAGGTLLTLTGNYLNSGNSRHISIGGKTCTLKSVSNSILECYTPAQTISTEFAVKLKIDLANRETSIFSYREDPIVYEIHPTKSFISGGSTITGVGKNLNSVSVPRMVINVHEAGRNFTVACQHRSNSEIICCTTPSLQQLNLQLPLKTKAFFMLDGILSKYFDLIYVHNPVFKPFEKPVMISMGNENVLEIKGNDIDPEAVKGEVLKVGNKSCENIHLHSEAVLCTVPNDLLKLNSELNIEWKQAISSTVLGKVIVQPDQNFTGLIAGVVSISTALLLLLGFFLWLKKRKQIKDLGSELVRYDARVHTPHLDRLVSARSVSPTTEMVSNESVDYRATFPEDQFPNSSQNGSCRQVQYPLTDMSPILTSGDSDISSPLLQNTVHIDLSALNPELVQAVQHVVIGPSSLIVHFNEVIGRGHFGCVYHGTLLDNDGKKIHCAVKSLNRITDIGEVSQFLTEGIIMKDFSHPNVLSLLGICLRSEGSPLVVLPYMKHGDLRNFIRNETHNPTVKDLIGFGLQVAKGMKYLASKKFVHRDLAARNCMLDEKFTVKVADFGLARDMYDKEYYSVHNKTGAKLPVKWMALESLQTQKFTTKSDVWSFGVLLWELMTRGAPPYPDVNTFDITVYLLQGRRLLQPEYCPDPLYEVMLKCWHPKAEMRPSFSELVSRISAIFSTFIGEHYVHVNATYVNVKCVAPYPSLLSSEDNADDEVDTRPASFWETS
T7 sequence (P17948 27-1338): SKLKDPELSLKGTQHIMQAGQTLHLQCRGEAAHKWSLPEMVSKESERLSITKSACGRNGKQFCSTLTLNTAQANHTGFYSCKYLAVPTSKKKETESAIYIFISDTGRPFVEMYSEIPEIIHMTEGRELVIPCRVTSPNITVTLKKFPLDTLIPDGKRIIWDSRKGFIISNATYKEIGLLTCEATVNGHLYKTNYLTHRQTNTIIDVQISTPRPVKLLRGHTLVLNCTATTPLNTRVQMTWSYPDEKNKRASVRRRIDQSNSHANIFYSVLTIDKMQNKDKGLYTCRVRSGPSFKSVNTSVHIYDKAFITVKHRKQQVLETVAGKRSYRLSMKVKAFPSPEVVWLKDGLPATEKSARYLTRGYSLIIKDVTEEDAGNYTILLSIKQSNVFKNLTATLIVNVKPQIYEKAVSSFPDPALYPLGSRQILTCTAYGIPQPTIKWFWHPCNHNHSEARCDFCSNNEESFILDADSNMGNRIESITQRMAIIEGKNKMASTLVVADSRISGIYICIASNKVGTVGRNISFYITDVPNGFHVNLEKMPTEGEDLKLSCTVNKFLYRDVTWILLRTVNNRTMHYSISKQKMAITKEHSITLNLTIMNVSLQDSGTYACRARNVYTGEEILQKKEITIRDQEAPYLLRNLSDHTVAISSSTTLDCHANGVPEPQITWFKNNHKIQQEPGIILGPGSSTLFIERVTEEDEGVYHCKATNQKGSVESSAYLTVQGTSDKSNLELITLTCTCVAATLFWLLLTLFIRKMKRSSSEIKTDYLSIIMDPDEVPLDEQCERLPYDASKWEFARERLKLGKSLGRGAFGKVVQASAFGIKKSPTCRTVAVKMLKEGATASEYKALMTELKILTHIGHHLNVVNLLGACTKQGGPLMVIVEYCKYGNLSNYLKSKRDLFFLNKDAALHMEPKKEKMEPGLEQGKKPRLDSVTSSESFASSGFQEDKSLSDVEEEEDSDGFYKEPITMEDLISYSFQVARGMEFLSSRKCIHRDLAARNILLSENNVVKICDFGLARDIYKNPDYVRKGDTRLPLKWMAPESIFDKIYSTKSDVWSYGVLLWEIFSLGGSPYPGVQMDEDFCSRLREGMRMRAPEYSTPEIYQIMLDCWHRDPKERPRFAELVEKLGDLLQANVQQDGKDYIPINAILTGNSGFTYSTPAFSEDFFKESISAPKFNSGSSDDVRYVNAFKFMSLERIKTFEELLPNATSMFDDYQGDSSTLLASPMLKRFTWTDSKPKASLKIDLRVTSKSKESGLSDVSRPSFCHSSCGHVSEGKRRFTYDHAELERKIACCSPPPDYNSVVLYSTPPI
T2 sequence (Q04912 25-1400): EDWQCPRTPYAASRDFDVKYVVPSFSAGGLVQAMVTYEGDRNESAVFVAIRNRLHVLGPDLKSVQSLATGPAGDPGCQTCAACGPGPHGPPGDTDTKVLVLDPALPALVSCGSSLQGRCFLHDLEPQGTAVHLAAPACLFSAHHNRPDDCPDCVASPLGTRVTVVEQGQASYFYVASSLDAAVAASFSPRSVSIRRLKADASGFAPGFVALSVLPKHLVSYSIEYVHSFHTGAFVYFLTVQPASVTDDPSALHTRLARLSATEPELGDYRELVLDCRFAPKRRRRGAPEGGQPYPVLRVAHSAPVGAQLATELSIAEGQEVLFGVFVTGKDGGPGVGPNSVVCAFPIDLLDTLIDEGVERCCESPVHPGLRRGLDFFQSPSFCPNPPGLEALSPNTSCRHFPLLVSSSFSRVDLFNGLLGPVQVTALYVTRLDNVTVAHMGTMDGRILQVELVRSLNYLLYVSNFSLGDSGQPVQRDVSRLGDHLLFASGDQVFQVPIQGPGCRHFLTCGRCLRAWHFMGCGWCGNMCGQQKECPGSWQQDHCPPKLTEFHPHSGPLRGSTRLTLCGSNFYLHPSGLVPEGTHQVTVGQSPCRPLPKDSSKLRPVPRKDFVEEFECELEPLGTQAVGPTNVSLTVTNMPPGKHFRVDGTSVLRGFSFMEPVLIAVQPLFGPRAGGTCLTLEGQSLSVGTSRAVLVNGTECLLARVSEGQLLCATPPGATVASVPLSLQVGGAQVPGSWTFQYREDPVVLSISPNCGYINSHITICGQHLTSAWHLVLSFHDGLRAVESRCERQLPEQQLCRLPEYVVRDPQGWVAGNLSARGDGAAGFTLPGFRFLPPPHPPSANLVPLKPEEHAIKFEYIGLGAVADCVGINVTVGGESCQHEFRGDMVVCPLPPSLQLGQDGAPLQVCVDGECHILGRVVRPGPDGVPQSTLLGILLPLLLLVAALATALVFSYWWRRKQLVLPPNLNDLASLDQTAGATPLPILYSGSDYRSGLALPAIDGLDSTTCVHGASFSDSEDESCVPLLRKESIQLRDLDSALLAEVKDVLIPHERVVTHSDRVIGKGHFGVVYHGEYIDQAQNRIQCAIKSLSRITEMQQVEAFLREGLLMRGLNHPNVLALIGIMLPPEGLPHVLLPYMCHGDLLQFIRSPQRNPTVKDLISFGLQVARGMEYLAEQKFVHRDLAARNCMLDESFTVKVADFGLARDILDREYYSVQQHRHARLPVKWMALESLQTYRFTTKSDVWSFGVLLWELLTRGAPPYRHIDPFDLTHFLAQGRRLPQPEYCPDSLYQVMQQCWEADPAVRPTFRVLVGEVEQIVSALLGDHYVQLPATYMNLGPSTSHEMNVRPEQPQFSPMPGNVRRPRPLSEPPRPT

O=c1[nH]ccc2cc(F)c(NS(=O)(=O)c3ccc(N4CC[C@@H](O)C4)s3)cc12 [LSN3213128, N-(6-Fluoro-1-oxo-1,2-dihydroisoquinolin-7-yl)-5-[(3R)-3-hydroxypyrrolidin-1-yl]thiophene-2-sulfonamide]
inhibition at 0.2 µM ([1]; @ 0.2 uM): -4.24% | inhibition at 2 µM ([1]; @ 2 uM): 5.22% | inhibition at 20 µM ([1]; @ 20 uM): -2.74% | inhibition at 0.2 µM ([2]; @ 0.2 uM): -17.2% | inhibition at 2 µM ([2]; @ 2 uM): -11.8% | inhibition at 20 µM ([2]; @ 20 uM): 33.9% | inhibition at 0.2 µM ([3]; @ 0.2 uM): -5.89% | inhibition at 2 µM ([3]; @ 2 uM): 8.99% | inhibition at 20 µM ([3]; @ 20 uM): 17.8% | inhibition at 0.2 µM ([4]; @ 0.2 uM): -2.01% | inhibition at 2 µM ([4]; @ 2 uM): -0.829% | inhibition at 20 µM ([4]; @ 20 uM): 11.7% | inhibition at 0.2 µM ([5]; @ 0.2 uM): -24.6% | inhibition at 2 µM ([5]; @ 2 uM): -4.9% | inhibition at 20 µM ([5]; @ 20 uM): 2.61% | inhibition at 0.2 µM ([6]; @ 0.2 uM): -2.09% | inhibition at 2 µM ([6]; @ 2 uM): 9.04% | inhibition at 20 µM ([6]; @ 20 uM): 51.6% | inhibition at 0.2 µM ([7]; @ 0.2 uM): -9.26% | inhibition at 2 µM ([7]; @ 2 uM): 4.29% | inhibition at 20 µM ([7]; @ 20 uM): 33.8% | inhibition at 0.2 µM ([8]; @ 0.2 uM): -9.3% | inhibition at 2 µM ([8]; @ 2 uM): 0.634% | inhibition at 20 µM ([8]; @ 20 uM): 10.3%

Source: publication PMC6193938, “Characterization of a novel AICARFT inhibitor which potently elevates ZMP and has anti-tumor activity in murine models” (Scientific Reports, 2018)
